Experimental data taken from US10981911B2, “Imidazopyrrolopyridine as inhibitors of the JAK family of kinases” (Janssen Pharmaceutica NV, priority 2016, dated 2021).

Assays:
Type in all cases: biochemical
Tyk2-JH1JH2 = Tyk2-JH1JH2 (Homo sapiens (Human), UniProt P29597, C1142A/C936A); test: Enzymatic inhibition assay (RapidFire HTMS), Tyk2; settings: 50 μM ATP, 200 μM substrate
Method in brief: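 Compounds were tested in duplicate as 11-point 1:3 or 1:4 DMSO dilutions (≤0.25% DMSO final) in 20 μL reactions at 25 °C for 90 min, with Tyk2 pre-incubated 30 min with 2 mM ATP. Reactions were quenched with TFA plus internal standard peptide, and phosphorylated product was quantified by RapidFire C4 SPE–ESI MS.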

JAK1-JH1JH2 = JAK1-JH1JH2 (Homo sapiens (Human), UniProt P23458); test: Enzymatic inhibition assay (RapidFire HTMS), JAK1; settings: 12.5 μM ATP, 200 μM substrate; read-out: JAK1-JH2JH1 IC50
JAK1-JH1JH2, sequence (P23458 574-1154): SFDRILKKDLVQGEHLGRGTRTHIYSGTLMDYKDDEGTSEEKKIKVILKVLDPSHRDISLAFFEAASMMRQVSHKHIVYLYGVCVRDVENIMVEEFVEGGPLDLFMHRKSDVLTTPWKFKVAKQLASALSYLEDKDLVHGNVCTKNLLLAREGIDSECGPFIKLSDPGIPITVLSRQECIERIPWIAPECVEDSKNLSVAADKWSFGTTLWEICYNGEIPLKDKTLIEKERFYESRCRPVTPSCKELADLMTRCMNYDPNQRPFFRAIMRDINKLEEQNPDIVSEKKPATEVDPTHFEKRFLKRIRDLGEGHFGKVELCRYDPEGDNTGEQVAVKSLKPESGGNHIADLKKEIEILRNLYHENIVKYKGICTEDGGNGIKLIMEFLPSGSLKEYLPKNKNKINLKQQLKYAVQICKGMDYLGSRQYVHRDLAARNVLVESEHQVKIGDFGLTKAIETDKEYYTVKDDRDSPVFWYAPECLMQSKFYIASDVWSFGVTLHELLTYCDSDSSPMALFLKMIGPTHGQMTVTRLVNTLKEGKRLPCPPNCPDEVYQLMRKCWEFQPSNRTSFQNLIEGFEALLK
Method in brief: (§1)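 Quenched with 0.5% TFA plus internal-standard peptide; phosphorylated product quantified by RapidFire C4 SPE–ESI-MS, 11-point 1:3 or 1:4 dilutions in duplicate.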

JAK3-JH1JH2 = JAK3-JH1JH2 (Homo sapiens (Human), UniProt P52333); test: Enzymatic inhibition assay (RapidFire HTMS), JAK3; settings: 150 μM ATP, 40 μM substrate
JAK3-JH1JH2, sequence (P52333 512-1124): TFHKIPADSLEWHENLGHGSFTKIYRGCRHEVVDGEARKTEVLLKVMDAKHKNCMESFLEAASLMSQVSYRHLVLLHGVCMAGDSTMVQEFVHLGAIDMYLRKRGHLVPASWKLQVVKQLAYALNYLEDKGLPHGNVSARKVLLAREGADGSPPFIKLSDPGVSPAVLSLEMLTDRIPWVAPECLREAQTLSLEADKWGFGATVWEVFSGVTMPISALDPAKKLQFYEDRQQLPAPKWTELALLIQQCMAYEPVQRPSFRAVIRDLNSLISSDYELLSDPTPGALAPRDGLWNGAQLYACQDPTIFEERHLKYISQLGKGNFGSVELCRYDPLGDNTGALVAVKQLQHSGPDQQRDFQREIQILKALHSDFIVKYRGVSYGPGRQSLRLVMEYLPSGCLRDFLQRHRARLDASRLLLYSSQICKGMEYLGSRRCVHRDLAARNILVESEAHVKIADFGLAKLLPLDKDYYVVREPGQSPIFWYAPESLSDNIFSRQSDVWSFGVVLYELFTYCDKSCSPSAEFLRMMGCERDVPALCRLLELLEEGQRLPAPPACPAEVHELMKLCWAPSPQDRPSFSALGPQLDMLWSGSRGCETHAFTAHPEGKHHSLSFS
Method in brief: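 Compounds tested in duplicate over 11-point 1:3 or 1:4 dilution series; no-enzyme wells as negative control. After 45 min at 25 °C, TFA quench with internal standard, and phosphorylated product quantified by RapidFire–QTrap mass spectrometry relative to the uninhibited reaction.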

JAK2-JH1JH2 = JAK2-JH1JH2 (Homo sapiens (Human), UniProt O60674); test: Enzymatic inhibition assay (RapidFire HTMS), JAK2; settings: 30 μM ATP, 40 μM substrate
JAK2-JH1JH2, sequence (O60674 532-1132): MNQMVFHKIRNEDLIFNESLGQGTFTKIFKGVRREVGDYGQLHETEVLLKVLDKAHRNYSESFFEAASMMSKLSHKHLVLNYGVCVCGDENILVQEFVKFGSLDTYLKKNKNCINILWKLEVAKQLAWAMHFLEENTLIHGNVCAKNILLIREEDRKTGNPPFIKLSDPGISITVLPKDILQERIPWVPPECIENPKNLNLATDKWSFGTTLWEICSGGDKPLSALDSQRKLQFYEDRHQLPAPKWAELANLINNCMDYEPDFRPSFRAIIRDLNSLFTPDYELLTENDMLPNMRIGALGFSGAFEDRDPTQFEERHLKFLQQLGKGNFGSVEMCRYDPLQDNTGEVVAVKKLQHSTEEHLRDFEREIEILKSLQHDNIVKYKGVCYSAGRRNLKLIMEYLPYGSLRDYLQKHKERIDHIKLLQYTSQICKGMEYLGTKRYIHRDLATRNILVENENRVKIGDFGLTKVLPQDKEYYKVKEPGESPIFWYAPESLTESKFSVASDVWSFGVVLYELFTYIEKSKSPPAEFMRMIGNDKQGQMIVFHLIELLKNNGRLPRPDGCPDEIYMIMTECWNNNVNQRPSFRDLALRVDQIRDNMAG
Method in brief: as §1

Tyk2-JH1JH2, sequence (P29597 580-1182 C936A/C1142A): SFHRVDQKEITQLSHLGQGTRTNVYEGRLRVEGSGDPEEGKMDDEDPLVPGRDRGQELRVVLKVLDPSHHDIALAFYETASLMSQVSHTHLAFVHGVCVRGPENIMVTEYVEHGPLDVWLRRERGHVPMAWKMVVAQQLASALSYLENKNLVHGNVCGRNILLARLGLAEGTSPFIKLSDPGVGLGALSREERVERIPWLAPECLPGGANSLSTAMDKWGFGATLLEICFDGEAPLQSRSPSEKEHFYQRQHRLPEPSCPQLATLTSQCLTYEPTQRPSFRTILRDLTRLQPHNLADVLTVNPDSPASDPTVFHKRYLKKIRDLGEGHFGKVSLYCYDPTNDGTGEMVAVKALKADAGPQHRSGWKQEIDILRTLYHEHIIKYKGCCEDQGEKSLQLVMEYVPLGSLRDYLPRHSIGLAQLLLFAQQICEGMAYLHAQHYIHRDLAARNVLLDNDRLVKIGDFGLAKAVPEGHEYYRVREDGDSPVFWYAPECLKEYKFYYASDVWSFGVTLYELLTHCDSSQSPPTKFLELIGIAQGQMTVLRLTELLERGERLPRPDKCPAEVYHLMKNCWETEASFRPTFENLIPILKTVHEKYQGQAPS

Row | Compound | IC50 (Tyk2-JH1JH2) [nM] | IC50 (JAK1-JH1JH2) [nM] | IC50 (JAK3-JH1JH2) [nM] | IC50 (JAK2-JH1JH2) [nM]
1 | CC(C)(O)Cn1cc(-c2nc3cnc4[nH]ccc4c3n2[C@H]2CC[C@H](CC#N)CC2)cn1 [Ex. 187, 2-((1r,4r)-4-(2-(1-(2-Hydroxy-2-methylpropyl)-1H-pyrazol-4-yl)imidazo[4,5-d]pyrrolo[2,3-b]pyridin-1(6H)-yl)cyclohexyl)acetonitrile] | 60 | 1.3 | 180 | 24.6
2 | CC(C)(O)CNC(=O)Cc1nc2cnc3[nH]cc(Cl)c3c2n1[C@H]1CC[C@H](CC#N)CC1 [Ex. 188, 2-(8-chloro-1-((1r,4r)-4-(cyanomethyl)cyclohexyl)-1,6-dihydroimidazo[4,5-d]pyrrolo[2,3-b]pyridin-2-yl)-N-(2-hydroxy-2-methylpropyl)acetamide] | 122 | 3.2 | 13.1 | 36.7
3 | CC(C)(O)CNC(=O)Cc1nc2cnc3[nH]cc(Br)c3c2n1[C@H]1CC[C@H](CC#N)CC1 [Ex. 189, 2-(8-bromo-1-((1r,4r)-4-(cyanomethyl)cyclohexyl)-1,6-dihydroimidazo[4,5-d]pyrrolo[2,3-b]pyridin-2-yl)-N-(2-hydroxy-2-methylpropyl)acetamide] | 182 | 3.4 | 16.6 | 42.3
4 | Cc1c[nH]c2ncc3nc(CC(=O)NCC(C)(C)O)n([C@H]4CC[C@H](CC#N)CC4)c3c12 [Ex. 190, 2-(1-((1r,4r)-4-(cyanomethyl)cyclohexyl)-8-methyl-1,6-dihydroimidazo[4,5-d]pyrrolo[2,3-b]pyridin-2-yl)-N-(2-hydroxy-2-methylpropyl)acetamide] | 458 | 12.4 | 102 | 150
5 | Cc1cc2c(ncc3nc(CC(=O)NCC(C)(C)O)n([C@H]4CC[C@H](CC#N)CC4)c32)[nH]1 [Ex. 191, 2-(1-((1r,4r)-4-(Cyanomethyl)cyclohexyl)-7-methyl-1,6-dihydroimidazo[4,5-d]pyrrolo[2,3-b]pyridin-2-yl)-N-(2-hydroxy-2-methylpropyl)acetamide] | 20.6 | 1.3 | 1340 | 57.3
6 | COCCOCCOCCOCCc1nc2cnc3[nH]ccc3c2n1[C@H]1CC[C@H](CC#N)CC1 [Ex. 192, 2-((1r,4r)-4-(2-(2,5,8,11-Tetraoxatridecan-13-yl)imidazo[4,5-d]pyrrolo[2,3-b]pyridin-1(6H)-yl)cyclohexyl)acetonitrile] | 25.8 | 1 | 1120 | 69
7 | N#CC[C@H]1CC[C@H](n2c(CC(=O)NCCOCCOCCN)nc3cnc4[nH]ccc4c32)CC1 [Ex. 193, N-(2-(2-(2-Aminoethoxy)ethoxy)ethyl)-2-(1-((1r,4r)-4-(cyanomethyl)cyclohexyl)-1,6-dihydroimidazo[4,5-d]pyrrolo[2,3-b]pyridin-2-yl)acetamide] | 5.3 | 0.2 | 69.5 | 10.1
8 | COCCOCCOCc1nc2cnc3[nH]ccc3c2n1[C@H]1CC[C@H](CC#N)CC1 [Ex. 194, 2-((1r,4r)-4-(2-((2-(2-methoxyethoxy)ethoxy)methyl)imidazo[4,5-d]pyrrolo[2,3-b]pyridin-1(6H)-yl)cyclohexyl)acetonitrile] | 72.5 | 9.4 | 1460 | 133
9 | N#CC[C@H]1CC[C@H](n2c(CC(=O)N3CCC[C@H]3CO)nc3cnc4[nH]ccc4c32)CC1 [Ex. 195, 2-((1S,4r)-4-(2-(2-((S)-2-(hydroxymethyl)pyrrolidin-1-yl)-2-oxoethyl)imidazo[4,5-d]pyrrolo[2,3-b]pyridin-1(6H)-yl)cyclohexyl)acetonitrile] | 11 | 3.3 | 294 | 33.7
10 | N#CC[C@H]1CC[C@H](n2c(COC(=O)NC34CC5CC(CC(C5)C3)C4)nc3cnc4[nH]ccc4c32)CC1 [Ex. 196, (1-((1r,4r)-4-(Cyanomethyl)cyclohexyl)-1,6-dihydroimidazo[4,5-d]pyrrolo[2,3-b]pyridin-2-yl)methyl (3S,5S,7S)-adamantan-1-ylcarbamate] | 41.8 | 3.4 | 660 | 41.4
11 | COC1CCN(C(=O)Cc2nc3cnc4[nH]ccc4c3n2[C@H]2CC[C@H](CC#N)CC2)CC1 [Ex. 197, 2-((1r,4r)-4-(2-(2-(4-Methoxypiperidin-1-yl)-2-oxoethyl)imidazo[4,5-d]pyrrolo[2,3-b]pyridin-1(6H)-yl)cyclohexyl)acetonitrile] | 6.2 | < 4 | 132 | 15.5
12 | CNC(=O)Cc1nc2cnc3[nH]ccc3c2n1[C@H]1CC[C@H](CC#N)CC1 [Ex. 198, 2-(1-((1r,4r)-4-(Cyanomethyl)cyclohexyl)-1,6-dihydroimidazo[4,5-d]pyrrolo[2,3-b]pyridin-2-yl)-N-methylacetamide] | 1.2 | < 4 | 24.4 | 2.1
13 | N#CC[C@H]1CC[C@H](n2c(CC(=O)NCC34CC5CC(CC(C5)C3)C4)nc3cnc4[nH]ccc4c32)CC1 [Ex. 199, N-((3R,5R,7R)-Adamantan-1-ylmethyl)-2-(1-((1r,4r)-4-(cyanomethyl)cyclohexyl)-1,6-dihydroimidazo[4,5-d]pyrrolo[2,3-b]pyridin-2-yl)acetamide] | 7.9 | < 4 | 109 | 3.6
14 | N#CC[C@H]1CC[C@H](n2c(CC(=O)Nc3ccc(C#N)cc3)nc3cnc4[nH]ccc4c32)CC1 [Ex. 200, 2-(1-((1r,4r)-4-(Cyanomethyl)cyclohexyl)-1,6-dihydroimidazo[4,5-d]pyrrolo[2,3-b]pyridin-2-yl)-N-(4-cyanophenyl)acetamide] | 12.5 | < 4 | 13.7 | < 3.5
15 | N#CC[C@H]1CC[C@H](n2c(CC(N)=O)nc3cnc4[nH]ccc4c32)CC1 [Ex. 201, 2-(1-((1r,4r)-4-(Cyanomethyl)cyclohexyl)-1,6-dihydroimidazo[4,5-d]pyrrolo[2,3-b]pyridin-2-yl)acetamide] | 1.1 | < 4 | 47.5 | 1.9
16 | CC(C)(C)OCc1nc2cnc3[nH]ccc3c2n1[C@H]1CC[C@H](CC#N)CC1 [Ex. 202, 2-((1r,4r)-4-(2-(tert-Butoxymethyl)imidazo[4,5-d]pyrrolo[2,3-b]pyridin-1(6H)-yl)cyclohexyl)acetonitrile] | 50.9 | 5 | 1040 | 50.9
17 | N#CC[C@H]1CC[C@H](n2c(Cn3c(-c4ccccc4)noc3=O)nc3cnc4[nH]ccc4c32)CC1 [Ex. 203, 2-((1r,4r)-4-(2-((5-Oxo-3-phenyl-1,2,4-oxadiazol-4(5H)-yl)methyl)imidazo[4,5-d]pyrrolo[2,3-b]pyridin-1(6H)-yl)cyclohexyl)acetonitrile] | 41.5 | 8.5 | 4680 | 152
18 | N#CC[C@H]1CC[C@H](n2c(CN/C(=N/O)C3CCCCC3)nc3cnc4[nH]ccc4c32)CC1 [Ex. 204, N-((1-((1r,4r)-4-(Cyanomethyl)cyclohexyl)-1,6-dihydroimidazo[4,5-d]pyrrolo[2,3-b]pyridin-2-yl)methyl)-N′-hydroxycyclohexanecarboximidamide] | 10.7 | 6.7 | 427 | 13.1
19 | N#CCC12CCC(n3c(CC(=O)N4CCCCC4)nc4cnc5[nH]ccc5c43)(CC1)CC2 [Ex. 205, 2-(4-(2-(2-Oxo-2-(piperidin-1-yl)ethyl)imidazo[4,5-d]pyrrolo[2,3-b]pyridin-1(6H)-yl)bicyclo[2.2.2]octan-1-yl)acetonitrile] | 606 | 5.3 | 439 | 487
20 | N#CCC12CCC(n3c(CC(N)=O)nc4cnc5[nH]ccc5c43)(CC1)CC2 [Ex. 206, 2-(1-(4-(Cyanomethyl)bicyclo[2.2.2]octan-1-yl)-1,6-dihydroimidazo[4,5-d]pyrrolo[2,3-b]pyridin-2-yl)acetamide] | 158 | 5.6 | 881 | 210
21 | N#CCC12CCC(n3c(CC(=O)Nc4ccccc4)nc4cnc5[nH]ccc5c43)(CC1)CC2 [Ex. 207, 2-(1-(4-(Cyanomethyl)bicyclo[2.2.2]octan-1-yl)-1,6-dihydroimidazo[4,5-d]pyrrolo[2,3-b]pyridin-2-yl)-N-phenylacetamide] | 524 | 6.8 | 375 | 198
22 | N#CCC12CCC(n3c(CC(=O)NCC4CCCCC4)nc4cnc5[nH]ccc5c43)(CC1)CC2 [Ex. 208, 2-(1-(4-(Cyanomethyl)bicyclo[2.2.2]octan-1-yl)-1,6-dihydroimidazo[4,5-d]pyrrolo[2,3-b]pyridin-2-yl)-N-(cyclohexylmethyl)acetamide] | 714 | 7.6 | 536 | 442
23 | CNC(=O)Cc1nc2cnc3[nH]ccc3c2n1C12CCC(CC#N)(CC1)CC2 [Ex. 209, 2-(1-(4-(Cyanomethyl)bicyclo[2.2.2]octan-1-yl)-1,6-dihydroimidazo[4,5-d]pyrrolo[2,3-b]pyridin-2-yl)-N-methylacetamide] | 651 | 18.9 | 604 | 520
